Measurements: PubChem BioAssay (NCI)
Several values for one entry are separate records, joined by “and”; a condition that tells them apart may be missing. Equal entries are not always repeated.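 Tested at 5 concentrations; 48 h exposure; 96-well plates; endpoints linearly interpolated, else capped at highest concentration. GI50 marks 50% less growth. The concentration for full growth arrest is given as TGI.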

Assays:
Test in all cases: NCI-60 cell line screen, 48 h
[1] = tested on: SF-539 CNS
[2] = tested on: DU-145 prostate
[3] = tested on: OVCAR-8 ovarian
[4] = tested on: UO-31 renal
[5] = tested on: A549 NSCLC
[6] = tested on: NCI-H226 lung
[7] = tested on: SF-295 CNS
[8] = tested on: RPMI-8226 leukemia
[9] = tested on: MOLT-4 leukemia
[10] = tested on: M14 melanoma

Compound	TGI [1] [µM]	TGI [2] [µM]	TGI [3] [µM]	TGI [4]	TGI [5] [µM]	TGI [6]	TGI [7] [µM]	TGI [8] [µM]	TGI [9] [µM]	TGI [10]	GI50 [2]	GI50 [5]	GI50 [8]	GI50 [1] [µM]	GI50 [3] [µM]	GI50 [4] [µM]	GI50 [7]	GI50 [9]	GI50 [6] [µM]	GI50 [10] [µM]
CCCC[C@H]1C(=O)O[C@H](C)[C@H](NC(=O)c2cccc(NC=O)c2OC)C(=O)O[C@@H](C)[C@@H]1OC(=O)CC(C)C (tested in a mixture with another compound)	51.9	55.7	34.7	41.4 µM	23	35 µM	30.3	28.2	51.4	46.6 µM	–	–	–	–	–	–	–	–	–	–
O=c1c(-c2ccccc2)c(SCCN2CCOCC2)n(-c2ccccc2)c(=S)n1-c1ccccc1	> 100	> 100	> 100	–	–	> 100 µM	> 100	> 100	> 100	–	–	–	–	–	–	–	–	–	–	–
Cc1ccc(C(=O)Nc2ncn(C3CC(O)C(CO)O3)c(=O)n2)cc1 (stereo unspecified)	> 100	–	> 100	> 100 µM	> 100	> 100 µM	> 100	> 100	97.3	–	–	–	–	–	–	–	–	–	–	–
C=C1CC2C3C=C(C)C4=CC(=O)CC[C@]4(C)C3CC[C@]2(C)[C@@]1(OC(C)=O)C(C)=O (stereo partly specified)	–	> 100	–	–	> 100	–	–	5.6	–	–	> 100 µM	2.63 µM	1.25 µM	–	–	–	–	–	–	–
Cc1cc2c(cc1Cl)SC(c1ccccc1O)NS2(=O)=O (stereo unspecified)	> 100	> 100	> 100	> 100 µM	> 100	> 100 µM	> 100	–	> 100	> 100 µM	–	–	–	–	–	–	–	–	–	–
C[C@H]1CCC/C=C/[C@@H]2C[C@H](O)C[C@H]2[C@H](O)/C=C/C(=O)O1	–	–	–	0.0655 µM and 0.492 µM	> 100	0.0954 µM and 0.148 µM and 0.0478 µM	–	–	–	6.57 µM and 0.738 µM	0.0785 µM and 0.218 µM and 0.248 µM	< 0.0207 µM and 0.0435 µM and 0.0578 µM	0.0345 µM and 0.0737 µM and 0.11 µM	0.0321	0.043	0.0301	< 0.0181 µM and 0.0524 µM and 0.12 µM	< 0.0165 µM and 0.0481 µM and 0.0564 µM	–	–
CCCCCCCCCCCCCCCCCC(=O)OCC1OC(OC)C(NC(=O)N(CCCl)N=O)C(O)C1O (stereo unspecified)	24.2	–	> 100	56.8 µM	52.1	86.8 µM	32.6	85.8	57.3	> 100 µM	–	–	–	–	–	–	–	–	–	–
CCOC(=O)C12CC(C)=C(C)CC1CCCc1ccccc12 (stereo unspecified)	85.7	> 100	> 100	> 100 µM	> 100	56 µM	86.3	34.2	52.3	> 100 µM	–	–	–	–	–	–	–	–	–	–
COc1ccc(N=Cc2ccc(N(CCC#N)S(=O)(=O)c3ccccc3)cc2C)cc1	> 100	–	> 100	> 100 µM	> 100	> 100 µM	> 100	> 100	> 100	71.5 µM	–	–	–	–	–	–	–	–	–	–
COc1cc(/C=C2\N=C(c3ccccc3)N(c3nc4ccc(Sc5ccccc5)cc4[nH]3)C2=O)cc(OC)c1OC	–	75.8	> 100	> 100 µM	> 100	–	90.1	56.4	78.5	49.7 µM	–	–	–	–	–	–	–	–	–	–
CCOC(=O)/C(=C\NC(C)(C)CO)c1nc2ccccc2[nH]1	> 100	> 100	> 100	11.7 µM	> 100	–	> 100	> 100	> 100	> 100 µM	–	–	–	–	–	–	–	–	–	–
O=c1[nH]c2cc([N+](=O)[O-])c(N/N=C/c3ccc(Cl)cc3Cl)c([N+](=O)[O-])c2[nH]1	> 100	> 100	> 100	> 100 µM	> 100	> 100 µM	> 100	> 100	> 100	> 100 µM	–	–	–	–	–	–	–	–	–	–
O=C([CH-]C(=O)c1ccccc1)c1ccccc1.O=C([CH-]C(=O)c1ccccc1)c1ccccc1.O=C([CH-]C(=O)c1ccccc1)c1ccccc1.[Cl-].[Hf+4]	41.8	–	77.7	96.9 µM	86.2	54 µM	> 100	82.1	> 100	32.9 µM	–	16.7 µM	13.5 µM	17.2	11.5	26.8	14.9 µM	11.1 µM	13	13.5
CC(C)(C)c1cc(-c2nc3ccc(N4CCN(CCO)CC4)cc3[nH]2)cc(C(C)(C)C)c1O	4.91	> 100	> 100	–	> 100	> 100 µM	–	–	–	–	4.08 µM	3.51 µM	–	2.13	6.53	–	–	–	21.5	–
O=C1CS(=O)(=O)C(c2cccc(Oc3ccccc3)c2)N1C1CC1 (stereo unspecified)	> 100	> 100	> 100	> 100 µM	> 100	83.6 µM	> 100	–	> 100	> 100 µM	–	–	–	–	–	–	–	–	–	–
N#Cc1c(-c2ccc(Cl)cc2)c2c([nH]c1=O)-c1cc([N+](=O)[O-])ccc1CCC2	35	> 100	50.8	32.5 µM	82.9	44.2 µM	45.3	> 100	> 100	73.4 µM	–	–	–	–	–	–	–	–	–	–

Compound	TGI [1] [µM]	TGI [2] [µM]	TGI [3] [µM]	TGI [4]	TGI [5] [µM]	TGI [6]	TGI [7] [µM]	TGI [8] [µM]	TGI [9] [µM]	TGI [10]	GI50 [2]	GI50 [5]	GI50 [8]	GI50 [1] [µM]	GI50 [3] [µM]	GI50 [4] [µM]	GI50 [7]	GI50 [9]	GI50 [6] [µM]	GI50 [10] [µM]
COc1cc(C2C(=O)C(Cl)N2Nc2nc(C)cc(=O)[nH]2)cc(OC)c1OC (stereo unspecified)	35.1	–	> 100	79.1 µM	> 100	62.6 µM	–	–	39.9	26.5 µM	–	–	–	–	–	–	–	–	–	–
CCN(CCO)CCNc1ccc(C)c2sc3ccccc3c(=O)c12	10.3	21.8	14.2	15 µM	15.2	14 µM	10.1	20.3	18.8	3.23 µM	–	–	–	–	–	–	–	–	–	–
O=c1[nH]c(=O)n(CCOCP(=O)(O)O)nc1Br	> 100	> 100	> 100	> 100 µM	> 100	> 100 µM	–	> 100	> 100	> 100 µM	–	–	–	–	–	–	–	–	–	–
Cc1ccc2c3c1[C@@H]1O[C@@H]1c1cccc(c1-3)[C@@H]1O[C@H]21	–	22.9	40.5	27.7 µM	34.1	84.7 µM	31.4	–	12.8	25.1 µM	–	–	–	–	–	–	–	–	–	–
O=S(=O)(O)c1ccc2c(N=Nc3ccccc3)c(O)ccc2c1	> 100	> 100	> 100	> 100 µM	> 100	> 100 µM	> 100	> 100	> 100	> 100 µM	–	–	–	–	–	–	–	–	–	–
COc1ccc(N=Nc2c(N)nn(C)c2N)cc1	> 100	–	> 100	> 100 µM	> 100	> 100 µM	> 100	> 100	> 100	> 100 µM	–	–	–	–	–	–	–	–	–	–
CCCCCCCCCCCCSC(=S)c1c(C)[nH]n(CCCCCCCCCCCC)c1=O	> 100	–	> 100	> 100 µM	> 100	> 100 µM	> 100	> 100	> 100	–	–	–	–	–	–	–	–	–	–	–
N=C(N)c1ccc(N=Nc2c(O)ccc3cc4c(N=Nc5ccc(C(=N)N)cc5)c(O)ccc4cc23)cc1	> 100	> 100	> 100	> 100 µM	> 100	> 100 µM	> 100	> 100	> 100	> 100 µM	–	–	–	–	–	–	–	–	–	–
CN1NC(c2ccccc2)=C(C#N)C(=O)CC1c1ccc(F)cc1 (stereo unspecified)	–	–	–	–	> 100	> 100 µM	> 100	> 100	> 100	–	–	–	–	–	–	–	–	–	–	–
Cn1c(=O)ccc2c(=O)c3ccccc3oc21	> 100	> 100	> 100	16.8 µM	> 100	> 100 µM	> 100	–	–	> 100 µM	–	–	–	–	–	–	–	–	–	–
NC(=O)CCSC(CC(=O)c1ccc(Cl)cc1)c1ccc(Cl)cc1 (stereo unspecified)	39.4	85.4	32.3	> 100 µM	> 100	> 100 µM	78.1	5.71	35.8	83.3 µM	–	–	–	–	–	–	–	–	–	–
C/C(=C\C(=N\NC(=N)N)c1ccccc1)c1ccccc1	1.85	9.49	4.83	–	16.9	13 µM	1.87	8.41	2.04	2.47 µM	–	–	–	–	–	–	–	–	–	–
Cc1cn(Cc2cn(CC3OC(n4cc(C)c(=O)[nH]c4=O)CC3O)nn2)c(=O)[nH]c1=O (stereo unspecified)	> 100	> 100	> 100	> 100 µM	> 100	> 100 µM	> 100	> 100	> 100	> 100 µM	–	–	–	–	–	–	–	–	–	–
Cc1cc(=O)n2c3c(c4c(cc13)c(CN(C)C)cc(=O)n4C)OC2	24.2	> 75.9	> 66.6	> 89.8 µM	> 55.1	> 67.1 µM	> 72.7	> 100	> 100	31.2 µM	–	–	–	–	–	–	–	–	–	–
COP(=O)(OC)[C@H](O)[C@H]1C[C@@H]1c1ccccc1	–	> 100	> 100	> 100 µM	> 100	> 100 µM	> 100	> 100	> 100	> 100 µM	–	–	–	–	–	–	–	–	–	–
